From patent publication US20250352524A1, “PREVENTION OF METASTATIC OUTGROWTH USING TEAD INHIBITORS” (Georgetown University, priority 2024, published 2025)
Entries after “also recorded” stand apart in the source; their conditions may differ.

How the values were obtained:
4T1 cancer cells = assay: Real Time Cell Analysis, cytotoxicity of T-cells +/- macrophages towards 4T1 cells; assay type: cell-based, mouse
Source text: To investigate whether the effect of iTEAD treatment on macrophages can enhance their crosstalk with T-cells in the lung microenvironment, peritoneal macrophages+/−iTEAD were first isolated and characterized as a model of resident macrophages for ex vivo experiments (FIG. 14, Panel A). It was observed that treatment with VT107 decreased gene expression of M2-like and fibrosis regulators, Aldh1a1 and Cc117 (Chen et al., 2020), as well as TEAD4 and its downstream target gene Ankrd1. […] The iTEAD pretreated peritoneal macrophages and untreated T-cells isolated from the spleen of tumor naïve mice (FIG. 14, Panel A) were then mixed for 5 hours before collecting the conditioned media for analysis. […] Next, these immune cell mixes were added to 4T1 spheres that were embedded into matrix. […] This effect was reversed by an IL12 neutralizing antibody. No change in cleaved caspase-3 in 4T1 cells in the presence of VT107-treated T-cells or macrophages alone, was detected at 24 hours (FIG. 14, Panels C and D). 4T1 cells were then plated and allowed to attach on electrode-coated arrays to monitor cancer cell viability before the addition of macrophages+/−iTEAD and T-cells. […]
Cell analysis was done using E-plates from xCELLigence, (Agilent, #5469830001) according to the manufacturer's protocol. […] Cell index was measured by changes in electric impedance at 15 min intervals. […]

DCIS:DCISA4 cells = assay: DCIS:DCIS-Δ4 mammary fat pad tumors in NOD/SCID mice, lung metastasis; assay type: in vivo; details: for growth rate or final volume of the primary tumors: tumors resected at 4 weeks; for outgrowth of cancer cells disseminated to the lungs: immunofluorescent staining of lungs
Method: Parental ductal carcinoma in situ (DCIS) was mixed with genetically-modified DCIS cells expressing AIB1-Δ4 (“DCIS-Δ4”) (see Sharif et al., 2021) at a 4:1 ratio, and the mix was injected into the mammary fat pad (MFP) of the mice. One group of mice received 30 mg/kg of the TEAD inhibitor VT107 (“iTEAD”) and the other group received vehicle treatment by daily oral gavage for 4 weeks. The primary tumors were removed by survival surgery. There was no difference observed in the growth rate or final volume of the primary tumors.
Lung tissues were subjected to RNA-Seq analysis, and Gene Set Enrichment Analysis (GSEA) was used to determine altered signaling pathways upon iTEAD treatment.
To further examine the effect of TEAD inhibition on the myeloid compartment of the lung, a human breast cancer cell line MCFDCIS (DCIS) that metastasizes to the lungs when a small population of cells (DCISA4) expresses an isoform of the transcription coactivator amplified in breast cancer 1 (Sharif et al., 2021), was used. DCIS:DCISA4 cells were injected into the mammary fat pad of NOD/SCID mice. Mice were treated daily with VT107. Tumors were surgically removed at week 4 and lungs were monitored for metastases for another 4 weeks without receiving additional treatment (FIG. 13, Panel B). Mouse body weights were measured weekly throughout the course of treatment (FIG. 13, Panel C). […] All mice in the vehicle treated group developed lung metastases as previously reported (Sharif et al., 2021). […] RNA was extracted from lung tissues to further examine the host stroma affected by VT107. RNA sequencing reads from the lungs were aligned to the mouse transcriptome to shed light on the host tissue changes in response to treatment in the presence of seeded cancer cells. […] These observations again show a shift in the inflammatory phenotypes in the microenvironment which could be responsible for the halt in the metastatic outgrowth of seeded cancer cells in the treated group.
Studies in mice were reviewed and approved by the Georgetown University Animal Care and Use Committee (GUACUC). Animals were randomized to receive vehicle control (DMSO) or VT107. Treatment was formulated in 5% DMSO, 10% solutol and 85% D5W; D5W. 5% glucose and administered daily by oral gavage. Five hundred thousand cells were injected into the mammary fat pad of age-matched 8 weeks old female NOD/SCID or C57/B16 mice purchased from Charles River or Jackson Laboratory, respectively. A hundred thousand 4T1 cells were injected into the tail veins of BALB/c mice purchased from Jackson Laboratory. Experimental timelines, treatment start times and durations are indicated in the figure diagrams and figure legends. Tissues collected were preserved in RNAlater (Thermofisher, #AM7020) or fixed in 10% formalin for histology analysis.
The total RNA from tissue or cell lines was extracted using RNeasy Mini Kit (Qiagen, #74104) according to the manufacturer's instructions. Total RNA integrity was assessed with the Agilent 2100 Bioanalyzer. The library preparation and next-generation sequencing (NGS) were performed at Novogene Corporation Inc. (Sacramento, CA, USA). At least triplicate samples per experimental condition were analyzed, raw sequence reads (150 bp paired end, […] average reads/sample) were aligned to the human or mouse transcriptome using STAR, and aligned reads translated to expression counts via featurecounts, followed by a standard edgeR (RRID:SCR_012802) pipeline to identify DEGs under specific conditions. Ingenuity pathway analysis (IPA, RRID:SCR_008653) was undertaken using a list of all differentially expressed genes with a cutoff of p-value less than 0.05 to identify signaling pathways and upstream regulators.

[1] = pathway analysis of lung RNA sequencing, VT107 vs vehicle

VT107
cytotoxicity of T-cells alone (4T1 cancer cells; extended VT107 treatment): slight increase | T-cells' cytotoxicity towards 4T1 cells (4T1 cancer cells; macrophages pretreated 24 hrs with 1 μM VT107, compared to T-cells alone): significantly increased | development of lung metastases (DCIS:DCISA4 cells; 30 mg/kg daily oral gavage for 4 weeks vs vehicle, H&E lung sections, listed as iTEAD): did not develop lung metastases; also recorded: significantly reduced | growth rate or final volume of the primary tumors (DCIS:DCISA4 cells; 30 mg/kg daily oral gavage for 4 weeks vs vehicle): similar | growth rate or final volume of the primary tumors (DCIS:DCISA4 cells; 30 mg/kg daily oral gavage for 4 weeks vs vehicle, listed as iTEAD): no difference; also recorded: no effect | outgrowth of cancer cells disseminated to the lungs (DCIS:DCISA4 cells; 30 mg/kg daily): failed to grow into overt metastases | outgrowth of cancer cells disseminated to the lungs (DCIS:DCISA4 cells; 30 mg/kg daily, listed as iTEAD): halted outgrowth; also recorded: unable to outgrow | mice with no overt lung metastases (DCIS:DCISA4 cells; 30 mg/kg daily, lungs monitored 4 weeks after tumor removal, all vehicle mice developed metastases): 4 out of 5 | Toll-like receptor 4 (TLR4) signaling pathway in lung tissue (GSEA) (DCIS:DCISA4 cells; RNA-Seq of lung tissue, iTEAD vs vehicle): drop and downregulation | human actin relative to mouse actin in lung tissues by qPCR (DCIS:DCISA4 cells; VT107-treated mice): presence of DCIS cells | myeloid cell activating pathways, acute phase response signaling and PD-L1 immunotherapy pathways in lungs (DCIS:DCISA4 cells; [1]): upregulation | signaling pathways implicated in pulmonary and hepatic fibrosis, cardiac hypertrophy and liver injury in lungs (DCIS:DCISA4 cells; [1]): downregulated
